1 compound from PMC10850954, “HDAC6/aggresome processing pathway importance for inflammasome formation is context-dependent” (The Journal of Biological Chemistry, 2024) can be followed below.

Common to all, as to experiment: In vitro enzymatic assay with purified HDACs
Common to all, as to assay type: biochemical

The target of one experiment is HDAC1 (Homo sapiens, UniProt Q13547). The text has this:
(§1) To extend these observations in other cell settings, we next made use of a novel HDAC6 proteolysis targeting chimera (PROTAC) degrader, XY-07-35 ([19]). Treatment of cells with XY-07-35 leads to recruitment of the E3 ligase cereblon (CRBN) to HDAC6, ubiquitination, and subsequent proteasomal degradation of HDAC6 (Fig. 3A).
(§2) Figure 3 Effect of […] mediated HDAC6 degradation on NLRP3 inflammasome activation in PBMCs.A, schematic of the mode of action of an HDAC6 degrader. The PROTAC engages both HDAC6 and the E3 ligase cereblon (CRBN), which then leads to ubiquitination and degradation of HDAC6. B, chemical structure of the HDAC6 degrader XY-07-35 and of the negative control XY-07-191 which no longer recruits CRBN. C, in vitro enzymatic assay of compound XY-07-35 on the activity of different HDACs. IC50 for each enzyme is shown. D, XY-07-35 mediated HDAC6 degradation in PBMCs. PBMCs (without or with LPS priming for 4 h) were treated with the indicated compounds and HDAC6 levels were detected by immunoblotting with an anti-HDAC6 antibody. Detection of actin was used as a control for loading. CGP, CGP084892 (Caspase-1 inhibitor); AFN700 is an inhibitor of the NF-kB pathway (IKK inhibitor). E, HDAC6 degradation impact on IL-1β release in PBMCs following MSU 200 μg/ml (5 h), nigericin 2 μM (2 h) or ATP 3 mM (0.5 h) treatment. Cells were first primed with 0.2 ng/ml LPS for 4 h at 37 °C, then treated with MSU, nigericin, and ATP as indicated. The graphs below show the results of three independent experiments using the inducers as indicated. NP3-948 is an inhibitor of the NLRP3 inflammasome. TEXT PRINTED IN THE PICTURE: (C) XY-07-035: Compound IC50 (μM): 1.04 (Target: HDAC1); Compound IC50 (μM): 2.47 (Target: HDAC2); Compound IC50 (μM): 1.44 (Target: HDAC3); Compound IC50 (μM): 5.75 (Target: HDAC5); Compound IC50 (μM): 0.0485 (Target: HDAC6); Compound IC50 (μM): 0.621 (Target: HDAC8) DOUBTS OF THE COPYIST ABOUT THIS PICTURE: XY-07-035, HDAC4, HDAC7 and HDAC9: the table prints only dashes (--), no value, so these rows are left out

For the next experiment, the target named is HDAC3 (Homo sapiens, UniProt O15379).
Source text: as §1, §2

For the next experiment, the target named is T1, HDAC6 (Homo sapiens, UniProt Q9UBN7).
T1 sequence (Q9UBN7 1-1215): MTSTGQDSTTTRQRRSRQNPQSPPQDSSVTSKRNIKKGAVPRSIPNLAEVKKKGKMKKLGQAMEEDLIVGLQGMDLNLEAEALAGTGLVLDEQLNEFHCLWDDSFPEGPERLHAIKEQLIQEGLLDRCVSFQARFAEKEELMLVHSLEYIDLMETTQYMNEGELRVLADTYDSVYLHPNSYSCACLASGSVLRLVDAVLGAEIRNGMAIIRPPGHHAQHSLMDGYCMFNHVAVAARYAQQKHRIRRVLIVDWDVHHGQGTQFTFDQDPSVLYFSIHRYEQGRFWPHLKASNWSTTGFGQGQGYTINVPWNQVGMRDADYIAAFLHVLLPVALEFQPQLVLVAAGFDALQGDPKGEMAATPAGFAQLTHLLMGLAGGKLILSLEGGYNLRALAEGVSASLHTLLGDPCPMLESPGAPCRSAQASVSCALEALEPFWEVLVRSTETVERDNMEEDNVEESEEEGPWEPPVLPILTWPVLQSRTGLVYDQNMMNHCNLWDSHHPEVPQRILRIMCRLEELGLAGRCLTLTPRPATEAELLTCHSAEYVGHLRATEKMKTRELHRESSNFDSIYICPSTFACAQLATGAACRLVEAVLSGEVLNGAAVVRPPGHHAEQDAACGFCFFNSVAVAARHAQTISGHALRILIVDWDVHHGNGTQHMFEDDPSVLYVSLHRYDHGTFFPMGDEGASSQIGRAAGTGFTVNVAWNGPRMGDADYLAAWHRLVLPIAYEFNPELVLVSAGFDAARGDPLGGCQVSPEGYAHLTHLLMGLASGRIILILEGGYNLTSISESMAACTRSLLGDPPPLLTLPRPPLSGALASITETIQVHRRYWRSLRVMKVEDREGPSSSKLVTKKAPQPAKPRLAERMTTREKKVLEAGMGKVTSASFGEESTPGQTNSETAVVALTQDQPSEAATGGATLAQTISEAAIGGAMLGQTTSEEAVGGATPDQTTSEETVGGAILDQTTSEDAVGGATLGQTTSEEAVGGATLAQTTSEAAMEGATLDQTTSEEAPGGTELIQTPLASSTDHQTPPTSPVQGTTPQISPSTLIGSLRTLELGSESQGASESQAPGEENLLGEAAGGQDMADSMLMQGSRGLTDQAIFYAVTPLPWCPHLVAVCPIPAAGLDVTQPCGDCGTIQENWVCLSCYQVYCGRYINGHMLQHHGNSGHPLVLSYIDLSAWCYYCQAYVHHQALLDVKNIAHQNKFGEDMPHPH
Source text: as §1, §2

For a further experiment, the system named is other HDACs. The following applies: other HDACs (than HDAC6 and HDAC8).
Source text: as §1, §2

The target in a further experiment is T2, HDAC8 (Homo sapiens, UniProt Q9BY41).
T2 sequence (Q9BY41 1-377): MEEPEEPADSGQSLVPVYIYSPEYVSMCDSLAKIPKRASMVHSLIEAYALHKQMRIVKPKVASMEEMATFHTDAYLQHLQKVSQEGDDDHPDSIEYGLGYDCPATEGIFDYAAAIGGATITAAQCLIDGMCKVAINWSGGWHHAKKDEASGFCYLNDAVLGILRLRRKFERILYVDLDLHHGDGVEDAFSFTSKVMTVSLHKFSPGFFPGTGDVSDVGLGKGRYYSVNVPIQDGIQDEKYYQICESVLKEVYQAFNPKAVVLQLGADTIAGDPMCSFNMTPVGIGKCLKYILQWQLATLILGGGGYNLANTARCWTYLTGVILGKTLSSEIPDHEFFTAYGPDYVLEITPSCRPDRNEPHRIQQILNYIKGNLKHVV
Source text: as §1, §2

Chain of HDAC1 (Q13547 whole entry, species assumed): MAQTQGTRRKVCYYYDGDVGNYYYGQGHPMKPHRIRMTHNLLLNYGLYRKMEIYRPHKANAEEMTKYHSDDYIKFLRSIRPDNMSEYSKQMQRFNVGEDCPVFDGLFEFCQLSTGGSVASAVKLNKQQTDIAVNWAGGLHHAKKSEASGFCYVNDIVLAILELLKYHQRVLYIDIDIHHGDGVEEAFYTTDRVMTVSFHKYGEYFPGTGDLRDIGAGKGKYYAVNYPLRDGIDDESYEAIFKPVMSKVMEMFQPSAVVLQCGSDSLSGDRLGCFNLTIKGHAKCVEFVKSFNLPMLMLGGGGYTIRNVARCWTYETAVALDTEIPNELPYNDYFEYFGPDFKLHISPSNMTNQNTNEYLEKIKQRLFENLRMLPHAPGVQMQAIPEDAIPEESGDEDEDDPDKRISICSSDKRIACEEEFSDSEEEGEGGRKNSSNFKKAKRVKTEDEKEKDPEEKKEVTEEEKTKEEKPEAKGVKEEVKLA
Chain of HDAC3 (O15379 whole entry, species assumed): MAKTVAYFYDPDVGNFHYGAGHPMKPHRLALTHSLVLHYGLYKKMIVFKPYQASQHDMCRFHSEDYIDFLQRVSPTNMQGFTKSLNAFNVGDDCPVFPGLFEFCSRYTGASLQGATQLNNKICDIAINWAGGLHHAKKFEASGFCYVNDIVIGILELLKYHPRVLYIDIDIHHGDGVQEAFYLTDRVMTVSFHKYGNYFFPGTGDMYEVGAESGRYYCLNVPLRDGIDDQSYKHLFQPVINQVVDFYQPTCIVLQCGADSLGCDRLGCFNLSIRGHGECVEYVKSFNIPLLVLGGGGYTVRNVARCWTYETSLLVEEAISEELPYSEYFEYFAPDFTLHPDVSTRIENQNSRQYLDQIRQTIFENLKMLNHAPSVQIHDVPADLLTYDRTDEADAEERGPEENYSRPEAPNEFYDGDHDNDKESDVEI
Chain of HDAC3 (Q9Y618 395-489 partner limits assumed, species assumed): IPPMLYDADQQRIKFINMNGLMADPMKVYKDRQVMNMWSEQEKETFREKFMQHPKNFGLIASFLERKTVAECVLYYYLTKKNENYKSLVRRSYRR

For `CN(C(=O)CCCNc1cccc2c1C(=O)N(C1CCC(=O)NC1=O)C2=O)c1ccc(NC(=O)CCCCCCC(=O)NO)cc1` (centres unmarked) [XY-07-35], the IC50 against HDAC1 is 1040 nM; at HDAC3, 1440 nM; on HDAC6, 48.5 nM; in the experiment on other HDACs it was 1040 to 5750 nM; on HDAC8, 621 nM.
